Assay results taken from ChEMBL document CHEMBL4673279, “Aromatic Ring Substituted Aaptamine Analogues as Potential Cytotoxic Agents against Extranodal Natural Killer/T-Cell Lymphoma” (J Nat Prod, 2020).

Assays:
Ramos = assay: Cytotoxicity against human Ramos cells assessed as reduction in cell viability after 48 hrs by CCK8 assay; type: functional, cell-based
[1] = (§1) Cytotoxicity against human SNK6 cells assessed as reduction in cell viability after 48 hrs by CCK8 assay; type: functional, cell-based; settings: SNK6, 48 h
SNK6 = assay: as §1; type: functional, cell-based
NB-4 = assay: Cytotoxicity against human NB4 cells assessed as reduction in cell viability after 48 hrs by CCK8 assay; type: functional, cell-based; settings: NB-4, 48 h
MCF7 = assay: Cytotoxicity against human MCF7 cells assessed as reduction in cell viability after 48 hrs by CCK8 assay; type: functional, cell-based; settings: MCF7, 48 h
HeLa = assay: Cytotoxicity against human HeLa cells assessed as reduction in cell viability after 48 hrs by CCK8 assay; type: functional, cell-based
Raji = assay: Cytotoxicity against human Raji cells assessed as reduction in cell viability after 48 hrs by CCK8 assay; type: functional, cell-based
GES1 = assay: Cytotoxicity against human GES1 cells assessed as reduction in cell viability after 48 hrs by CCK8 assay; type: cell-based; settings: GES1, 48 h
L02 = assay: Cytotoxicity against human L02 cells assessed as reduction in cell viability after 48 hrs by CCK8 assay; type: cell-based; settings: L02, 48 h
[2] = Cytotoxicity against human NK92 cells assessed as cell viability at 20 uM after 48 hrs by CCK8 assay relative to control; type: cell-based; settings: read-out: Activity
[3] = Cytotoxicity against human HEK293T cells assessed as cell viability at 20 uM after 48 hrs by CCK8 assay relative to control; type: cell-based, HEK-293T; settings: read-out: Activity
U-937 = assay: Cytotoxicity against human U937 cells assessed as reduction in cell viability after 48 hrs by CCK8 assay; type: functional, cell-based
SNT8 = assay: Cytotoxicity against human SNT8 cells assessed as reduction in cell viability after 48 hrs by CCK8 assay; type: functional, cell-based
SUD4 = assay: Cytotoxicity against human SU-DHL-4 cells assessed as reduction in cell viability after 48 hrs by CCK8 assay; type: functional, cell-based
[4] = (§2) Cytotoxicity against human WSUDLCL2 cells assessed as reduction in cell viability after 48 hrs by CCK8 assay; type: functional, cell-based; settings: WSUDLCL2, 48 h
WSUDLCL2 = assay: as §2; type: functional, cell-based

Structure (SMILES) | IC50 [1] [µM] | IC50 (NB-4) [µM] | IC50 (MCF7) [µM] | IC50 (HeLa) [µM] | also measured
COc1c(OC)c2c3c(nccc3c1-c1cccc(C)c1)C(c1cccc(C)c1)=CN2 | 0.6 | 2.1 | 10 | 7.2 | Activity (Ramos): Dose-dependent effect; IC50 (Ramos): 1400 nM; Activity (SNK6): Dose-dependent effect; Activity (Raji): Dose-dependent effect; IC50 (Raji): 1400 nM; IC50 (GES1): 2000 nM; IC50 (L02): 3.4 µM; viability at 48 h, 20 µM [2]: ≤ 90%; viability at 48 h, 20 µM [3]: ≤ 90%; Activity (U-937): Dose-dependent effect; IC50 (U-937; U-937, 48 h): 2800 nM; Activity (SNT8): Dose-dependent effect; Activity (SUD4): Dose-dependent effect; IC50 (SUD4; SU-DHL-4, 48 h): 800 nM; IC50 [4]: 1300 nM; Activity (WSUDLCL2): Dose-dependent effect
COc1cc2ccnc3c2c(c1OC)NC=C3c1cccc(C)c1 | > 20 | > 20 | > 20 | 12 | 
COc1c(OC)c2c3c(nccc3c1-c1ccc(F)cc1)C(c1ccc(F)cc1)=CN2 | > 20 | 19 | > 20 | 8.7 | 
COc1c(OC)c2c3c(nccc3c1-c1cccc(C(C)C)c1)C(c1cccc(C(C)C)c1)=CN2 | > 20 | > 20 | > 20 | > 20 | 
COc1c(OC)c2c3c(nccc3c1-c1ccc(C)cc1)C(c1ccc(C)cc1)=CN2 | 11 | 18 | > 20 | 12 | 
COc1c(OC)c2c3c(nccc3c1-c1ccc(Cl)cc1)C(c1ccc(Cl)cc1)=CN2 | 8.4 | 17 | > 20 | 11 | 
COc1c(OC)c2c3c(nccc3c1-c1ccc(C(F)(F)F)cc1)C=CN2 | > 20 | > 20 | 11 | 11 | 
COc1c(OC)c2c3c(nccc3c1-c1cccc(C(F)(F)F)c1)C=CN2 | 4.3 | > 20 | 3.2 | 8.9 | 
CCc1ccc(C2=CNc3c(OC)c(OC)c(-c4ccc(CC)cc4)c4ccnc2c34)cc1 | 4.2 | 16 | 18 | 17 | 
COc1cc2ccnc3c2c(c1OC)NC=C3 [AAPTAMINE] | > 20 | > 20 | > 20 | 19 | 
COc1ccc(-c2c(OC)c(OC)c3c4c(nccc24)C=CN3)cc1 | 1.7 | > 20 | 9.8 | 11 | 
COc1ccc(C2=CNc3c(OC)c(OC)c(-c4ccc(OC)cc4)c4ccnc2c34)cc1 | 5.8 | > 20 | 12 | 13 | 
COc1ccc(C2=CNc3c(OC)c(OC)cc4ccnc2c34)cc1 | > 20 | > 20 | > 20 | > 20 | 
CCc1ccc(C2=CNc3c(OC)c(OC)cc4ccnc2c34)cc1 | 4.9 | > 20 | > 20 | 11 | 
COc1cc2ccnc3c2c(c1OC)NC=C3c1cccc2ccccc12 | > 20 | > 20 | > 20 | 4 | 
COc1c(OC)c2c3c(nccc3c1-c1ccccc1)C=CN2 | > 20 | > 20 | > 20 | > 20 | 

Structure (SMILES) | IC50 [1] [µM] | IC50 (NB-4) [µM] | IC50 (MCF7) [µM] | IC50 (HeLa) [µM] | also measured
COc1cc2ccnc3c2c(c1OC)NC=C3c1cccc(C(F)(F)F)c1 | 8.8 | > 20 | 17 | 15 | 
COc1c(OC)c2c3c(nccc3c1-c1cc(C)cc(C)c1)C(c1cc(C)cc(C)c1)=CN2 | 3.1 | 7.9 | 8.3 | 5.4 | 
COc1c(OC)c2c3c(nccc3c1-c1cccc(F)c1)C(c1cccc(F)c1)=CN2 | 10 | > 20 | 20 | 17 | 
COc1c(OC)c2c3c(nccc3c1-c1cccc3ccccc13)C=CN2 | 16 | > 20 | > 20 | 18 | 
COc1c(OC)c2c3c(nccc3c1-c1ccccc1)C(c1ccccc1)=CN2 | > 20 | > 20 | 19 | 11 | 
COc1c(OC)c2c3c(nccc3c1-c1cccc(C(C)C)c1)C=CN2 | > 20 | > 20 | > 20 | > 20 | 
COc1c(OC)c2c3c(nccc3c1-c1ccc(Cl)cc1)C=CN2 | 7.7 | > 20 | 9.4 | 1.9 | 
COc1c(OC)c2c3c(nccc3c1-c1cccc3ccccc13)C(c1cccc3ccccc13)=CN2 | > 20 | > 20 | > 20 | 8.2 | 
COc1cc2ccnc3c2c(c1OC)NC=C3c1cccc(C(C)C)c1 | 8.4 | 17 | > 20 | 11 | 
COc1c(OC)c2c3c(nccc3c1-c1ccc(C(F)(F)F)cc1)C(c1ccc(C(F)(F)F)cc1)=CN2 | 9.4 | > 20 | > 20 | > 20 | 
COc1cc2ccnc3c2c(c1OC)NC=C3c1ccccc1 | 8.9 | > 20 | 12 | 17 | 
COc1cc2ccnc3c2c(c1OC)NC=C3c1cccc(F)c1 | > 20 | > 20 | > 20 | > 20 | 
COc1cc2ccnc3c2c(c1OC)NC=C3c1cccc(O)c1 | > 20 | > 20 | > 20 | > 20 | 
COc1c(OC)c2c3c(nccc3c1-c1cccc(C(F)(F)F)c1)C(c1cccc(C(F)(F)F)c1)=CN2 | 8.6 | 7.1 | > 20 | 18 | 
COc1cc2ccnc3c2c(c1OC)NC=C3c1ccc(Cl)cc1 | > 20 | > 20 | > 20 | > 20 | 
